Data reported in the Kinase Knowledgebase extract (Sharma et al. 2016).

Legend:
[1] = target: PIK3CG (human) (UniProt P48736); assay: Assessment of PIK3CG Kinase Activity
[2] = target: PIK3CA (human) (UniProt P42336); assay: Assessment of PIK3CA Kinase Activity
[3] = target: PIK3CD (Human) (UniProt O00329); assay: Assessment of PIK3CD Kinase Activity
Sequence of PIK3CD (Human) (O00329 whole entry, looked up): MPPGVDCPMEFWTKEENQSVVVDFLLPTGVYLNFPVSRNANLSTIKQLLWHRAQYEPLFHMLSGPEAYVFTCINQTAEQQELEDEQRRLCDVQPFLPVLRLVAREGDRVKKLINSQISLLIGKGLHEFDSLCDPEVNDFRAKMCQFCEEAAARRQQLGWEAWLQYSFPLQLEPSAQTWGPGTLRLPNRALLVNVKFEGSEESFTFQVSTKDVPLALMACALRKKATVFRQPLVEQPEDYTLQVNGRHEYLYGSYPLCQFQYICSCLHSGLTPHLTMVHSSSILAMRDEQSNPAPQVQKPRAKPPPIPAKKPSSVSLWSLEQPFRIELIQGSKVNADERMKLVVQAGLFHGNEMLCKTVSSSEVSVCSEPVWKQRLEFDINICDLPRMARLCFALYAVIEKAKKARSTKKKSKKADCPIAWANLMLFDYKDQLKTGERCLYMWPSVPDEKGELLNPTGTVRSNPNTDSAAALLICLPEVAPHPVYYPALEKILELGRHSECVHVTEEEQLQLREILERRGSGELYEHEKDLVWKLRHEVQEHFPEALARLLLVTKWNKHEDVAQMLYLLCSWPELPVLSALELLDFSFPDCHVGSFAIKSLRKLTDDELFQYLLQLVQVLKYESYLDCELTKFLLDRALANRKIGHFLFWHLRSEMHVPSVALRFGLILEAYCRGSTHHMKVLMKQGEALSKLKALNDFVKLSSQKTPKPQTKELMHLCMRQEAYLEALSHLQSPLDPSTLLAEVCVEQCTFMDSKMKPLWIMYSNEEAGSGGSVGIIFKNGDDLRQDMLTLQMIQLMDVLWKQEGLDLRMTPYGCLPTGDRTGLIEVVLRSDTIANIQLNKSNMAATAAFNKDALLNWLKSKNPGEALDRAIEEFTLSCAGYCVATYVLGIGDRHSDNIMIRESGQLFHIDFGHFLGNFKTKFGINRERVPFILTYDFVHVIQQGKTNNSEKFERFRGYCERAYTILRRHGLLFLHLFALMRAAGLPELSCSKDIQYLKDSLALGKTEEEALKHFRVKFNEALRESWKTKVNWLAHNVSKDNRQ

Sequence of PIK3CG (human) (P48736 whole entry, looked up): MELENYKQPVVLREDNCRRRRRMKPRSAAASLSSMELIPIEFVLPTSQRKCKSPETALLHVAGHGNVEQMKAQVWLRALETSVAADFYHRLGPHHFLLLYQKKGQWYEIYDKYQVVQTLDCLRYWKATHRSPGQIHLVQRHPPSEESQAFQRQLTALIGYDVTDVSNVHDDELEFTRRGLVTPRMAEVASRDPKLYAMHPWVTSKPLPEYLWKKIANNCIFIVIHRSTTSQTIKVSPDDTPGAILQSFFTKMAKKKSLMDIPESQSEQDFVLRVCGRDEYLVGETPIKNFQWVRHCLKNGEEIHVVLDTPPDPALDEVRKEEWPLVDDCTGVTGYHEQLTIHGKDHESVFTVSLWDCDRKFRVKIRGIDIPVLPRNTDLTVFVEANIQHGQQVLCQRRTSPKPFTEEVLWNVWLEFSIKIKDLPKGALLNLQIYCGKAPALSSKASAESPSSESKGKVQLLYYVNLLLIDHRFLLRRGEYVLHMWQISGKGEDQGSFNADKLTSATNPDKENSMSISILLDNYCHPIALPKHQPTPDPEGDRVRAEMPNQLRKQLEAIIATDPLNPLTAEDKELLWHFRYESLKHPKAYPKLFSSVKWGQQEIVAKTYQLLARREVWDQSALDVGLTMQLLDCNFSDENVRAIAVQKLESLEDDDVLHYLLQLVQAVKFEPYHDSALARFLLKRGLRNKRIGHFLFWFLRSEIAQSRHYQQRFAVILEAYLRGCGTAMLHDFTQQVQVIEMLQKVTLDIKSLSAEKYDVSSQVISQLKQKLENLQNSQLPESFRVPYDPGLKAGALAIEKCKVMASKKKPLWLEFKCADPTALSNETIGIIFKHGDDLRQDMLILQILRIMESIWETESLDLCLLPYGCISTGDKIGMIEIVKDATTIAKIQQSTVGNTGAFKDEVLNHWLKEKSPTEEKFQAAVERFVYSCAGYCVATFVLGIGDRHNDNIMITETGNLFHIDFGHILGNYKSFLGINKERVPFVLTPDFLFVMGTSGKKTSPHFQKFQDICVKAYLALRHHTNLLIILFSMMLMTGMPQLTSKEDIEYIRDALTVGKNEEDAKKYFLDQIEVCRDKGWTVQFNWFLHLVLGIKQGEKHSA
Sequence of PIK3CA (human) (P42336 whole entry, looked up): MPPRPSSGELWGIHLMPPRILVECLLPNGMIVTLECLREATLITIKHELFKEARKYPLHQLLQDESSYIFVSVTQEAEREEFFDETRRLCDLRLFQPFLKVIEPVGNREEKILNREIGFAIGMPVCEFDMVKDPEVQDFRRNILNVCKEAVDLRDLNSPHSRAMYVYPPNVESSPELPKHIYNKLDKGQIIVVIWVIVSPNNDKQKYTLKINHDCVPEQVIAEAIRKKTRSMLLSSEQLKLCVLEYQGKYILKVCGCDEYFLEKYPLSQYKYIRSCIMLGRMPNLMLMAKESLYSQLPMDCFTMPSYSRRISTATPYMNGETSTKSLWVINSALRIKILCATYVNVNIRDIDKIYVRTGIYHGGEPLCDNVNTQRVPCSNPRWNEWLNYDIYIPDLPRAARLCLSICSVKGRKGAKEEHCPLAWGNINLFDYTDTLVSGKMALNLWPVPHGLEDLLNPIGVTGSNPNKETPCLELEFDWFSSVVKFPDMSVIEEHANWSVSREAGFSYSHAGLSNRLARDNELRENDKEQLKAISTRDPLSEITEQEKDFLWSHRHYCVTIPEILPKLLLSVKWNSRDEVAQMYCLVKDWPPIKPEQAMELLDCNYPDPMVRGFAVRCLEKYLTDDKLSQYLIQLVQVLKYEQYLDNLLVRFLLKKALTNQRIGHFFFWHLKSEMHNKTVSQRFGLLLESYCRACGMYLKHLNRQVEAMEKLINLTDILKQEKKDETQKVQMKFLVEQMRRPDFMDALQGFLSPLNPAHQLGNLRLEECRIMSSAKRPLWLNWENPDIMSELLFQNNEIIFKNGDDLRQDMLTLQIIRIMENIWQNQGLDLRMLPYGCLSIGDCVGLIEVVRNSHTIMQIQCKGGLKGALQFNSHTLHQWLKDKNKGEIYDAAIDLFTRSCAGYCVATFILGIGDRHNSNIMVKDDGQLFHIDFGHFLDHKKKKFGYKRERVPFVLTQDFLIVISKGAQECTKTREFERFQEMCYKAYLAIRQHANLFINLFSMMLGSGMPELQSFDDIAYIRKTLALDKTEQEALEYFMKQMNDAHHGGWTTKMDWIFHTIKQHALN

Structure (SMILES) | IC50 [1] | IC50 [2] | IC50 [3]
CCc1cnc(CCNC(=O)Nc2nc(C)c(-c3ccc(S(C)(=O)=O)c(-n4ccnc4)c3)s2)o1 | 32 nM | 156 nM | 170 nM
Cc1nc(NC(=O)NCCO)sc1-c1ccc(S(C)(=O)=O)c(C(F)(F)F)c1 | 47 nM | 35 nM | 180 nM
Cc1nc(NC(=O)NCCC(=O)OC(C)(C)C)sc1-c1ccc(S(C)(=O)=O)c(F)c1 | 16 nM | 3020 nM | 626 nM
Cc1nc(NC(=O)NCC(=O)N(C)C)sc1-c1ccc(S(C)(=O)=O)c(F)c1 | 12 nM | 9 nM | 28 nM
CCc1nnc(CCNC(=O)Nc2nc(C)c(-c3ccc(S(C)(=O)=O)c(F)c3)s2)o1 | 74 nM | 839 nM | 3790 nM
Cc1nc(NC(=O)N2CC(C#N)C2)sc1-c1ccc(S(C)(=O)=O)c(F)c1 | 195 nM | 190 nM | –

More lines, in order of falling IC50 [1], values ahead:

IC50 [1] | IC50 [2] | IC50 [3] | Structure (SMILES)
213 nM | 2060 nM | 2620 nM | Cc1nc(NC(=O)NCCC(=O)OC(C)(C)C)sc1-c1ccc(S(C)(=O)=O)c(C(F)(F)F)c1
177 nM | 218 nM | 637 nM | Cc1nc(NC(=O)NCCS(C)(=O)=O)sc1-c1ccc(F)c(S(C)(=O)=O)c1
44 nM | 1500 nM | 420 nM | Cc1nc(NC(=O)NCCc2cn(C(C)C)cn2)sc1-c1ccc(S(C)(=O)=O)c(F)c1
38 nM | 934 nM | 2150 nM | CCn1cnc(CCNC(=O)Nc2nc(C)c(-c3ccc(S(C)(=O)=O)c(F)c3)s2)c1
